In patent publication US10138207B2, “Benzomorphan analogs and the use thereof” (priority 2012, dated 2018):

Key:
[1] = target: T1, human opioid receptor-like receptor (ORL-1) (Homo sapiens, UniProt P41146); assay: ORL-1 receptor radioligand binding assay ([3H]-nociceptin); details: HEK-293 or CHO cells; bound in μM
T1 construct: host or cells: HEK-293
Description: Membranes from recombinant HEK-293 cells expressing the human opioid receptor-like receptor (ORL-1) (Perkin Elmer, Shelton, Conn.) are prepared by lysing cells in ice-cold hypotonic buffer (2.5 mM MgCl2, 50 mM HEPES, pH 7.4) (10 ml/10 cm dish) followed by homogenization with a tissue grinder/Teflon pestle. Membranes are collected by centrifugation at 30,000×g for 15 min at 4° C. and pellets resuspended in hypotonic buffer to a final concentration of 1-3 mg/ml. Protein concentrations are determined using the BioRad protein assay reagent with bovine serum albumen as standard. Aliquots of the ORL-1 receptor membranes are stored at −80° C.
Radioligand binding assays (screening and dose-displacement) use 0.1 nM [^3H]-nociceptin (Perkin Elmer, Shelton, Conn.; 87.7 Ci/mmole) with 12 μg membrane protein in a final volume of 500 μl binding buffer (10 mM MgCl2, 1 mM EDTA, 5% DMSO, 50 mM HEPES, pH 7.4). Non-specific binding is determined in the presence of […] unlabeled nociceptin (American Peptide Company). All reactions are performed in 96-deep well polypropylene plates for 1 h at room temperature. […] The data from screening and dose-displacement experiments are analyzed using Microsoft Excel and the curve fitting functions in GraphPad PRISM™, v. 3.0 or higher, respectively, or an in-house function for one-site competition curve-fitting.

μ-opioid receptor [2] = target: T2, μ-opioid receptor (Homo sapiens, UniProt P35372); assay: μ-opioid receptor [35S]GTPγS functional assay, U-2 OS cells; format: biochemical; set-up: expressed in transfected cells; host or cells: U-2 OS; details: U-2 OS cells; for EC50: read-out: GTPγS μ EC50; for Emax: relative to DAMGO, read-out: GTPγS μ Emax
μ-opioid receptor [3] = target: T2, μ-opioid receptor; assay: μ-opioid receptor radioligand dose-displacement binding assay ([3H]-diprenorphine); set-up: expressed in transfected cells; host or cells: HEK-293 or CHO; details: HEK-293 or CHO cells; read-out: Ki Opioid Receptor μ
Description: Radioligand dose-displacement binding assays for μ-opioid receptors used 0.3 nM [^3H]-diprenorphine (Perkin Elmer, Shelton, Conn.), with […] membrane protein/well in a final volume of 500 μl binding buffer (10 mM MgCl2, 1 mM EDTA, 5% DMSO, 50 mM HEPES, pH 7.4). Reactions were carried out in the absence or presence of increasing concentrations of unlabeled naloxone. All reactions were conducted in 96-deep well polypropylene plates for 2 hr at room temperature. […] The data were analyzed using the one-site competition curve fitting functions in GraphPad PRISM™ v. 3.0 or higher (San Diego, Calif.), or an in-house function for one-site competition curve-fitting.

μ-opioid receptor [4] = target: T2, μ-opioid receptor; assay: μ-opioid receptor [35S]GTPγS functional assay, HEK-293 or CHO cells; details: for Emax: read-out: GTPγS μ Emax
κ opioid receptor [5] = target: T3, κ opioid receptor (Homo sapiens, UniProt P41145); assay: κ-opioid receptor [35S]GTPγS functional assay, HEK-293 or CHO cells; format: biochemical; set-up: expressed in transfected cells; host or cells: U-2 OS (in-house membranes); details: HEK-293 or CHO cells; for EC50: bound in μM, read-out: GTPγS κ EC50; for Emax: relative to U69,593
κ opioid receptor [6] = target: T3, κ opioid receptor; assay: κ-opioid receptor [35S]GTPγS functional assay, U-2 OS cells; format: biochemical; set-up: expressed in transfected cells; host or cells: U-2 OS (in-house membranes); details: U-2 OS cells; for EC50: bound in μM, read-out: GTPγS κ EC50; for Emax: relative to U69,593, read-out: GTPγS κ Emax
Description: Membranes from recombinant HEK-293 cells, CHO or U-2 OS cells expressing the recombinant human κ opioid receptor (κ) were prepared by lysing cells in ice cold hypotonic buffer (2.5 mM MgCl2, 50 mM HEPES, pH 7.4) (10 mL/10 cm dish) followed by homogenization with a tissue grinder/Teflon pestle. […] Membranes were collected by centrifugation at 30,000×g for 15 min at 4° C. and pellets were resuspended in hypotonic buffer to a final concentration of 1-3 mg/mL. Protein concentrations were determined using the BioRad protein assay reagent with bovine serum albumen as standard. Aliquots of κ receptor membranes were stored at −80° C.
Plates were incubated for 30 min at a temperature of about 25° C. with shaking.

κ opioid receptor [7] = target: T3, κ opioid receptor; assay: biochemical; format: binding; set-up: expressed in transfected cells; host or cells: HEK 293 (in-house membrane prep); details: HEK-293 or CHO cells

T1 sequence (P41146 whole entry): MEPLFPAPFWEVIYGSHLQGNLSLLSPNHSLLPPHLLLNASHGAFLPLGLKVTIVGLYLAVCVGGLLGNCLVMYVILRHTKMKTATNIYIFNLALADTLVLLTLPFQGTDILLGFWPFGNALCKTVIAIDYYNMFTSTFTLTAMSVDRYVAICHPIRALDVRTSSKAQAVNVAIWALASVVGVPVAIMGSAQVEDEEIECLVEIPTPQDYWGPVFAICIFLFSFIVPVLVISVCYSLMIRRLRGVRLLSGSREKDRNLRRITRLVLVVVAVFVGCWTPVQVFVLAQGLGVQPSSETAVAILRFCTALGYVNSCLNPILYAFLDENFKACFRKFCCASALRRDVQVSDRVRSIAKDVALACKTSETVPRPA
T2 sequence (P35372 whole entry, species assumed): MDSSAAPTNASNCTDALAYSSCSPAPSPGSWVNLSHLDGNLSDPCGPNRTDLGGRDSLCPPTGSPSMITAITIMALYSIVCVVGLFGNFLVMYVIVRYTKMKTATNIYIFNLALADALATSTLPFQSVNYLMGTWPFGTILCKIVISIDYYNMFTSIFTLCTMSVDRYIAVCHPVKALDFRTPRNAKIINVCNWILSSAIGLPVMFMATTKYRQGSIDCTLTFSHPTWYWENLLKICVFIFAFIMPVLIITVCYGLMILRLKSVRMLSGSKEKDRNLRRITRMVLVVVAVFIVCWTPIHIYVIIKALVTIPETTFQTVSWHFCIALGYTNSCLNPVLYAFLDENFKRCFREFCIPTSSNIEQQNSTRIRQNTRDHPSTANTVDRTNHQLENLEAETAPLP
T3 sequence (P41145 whole entry): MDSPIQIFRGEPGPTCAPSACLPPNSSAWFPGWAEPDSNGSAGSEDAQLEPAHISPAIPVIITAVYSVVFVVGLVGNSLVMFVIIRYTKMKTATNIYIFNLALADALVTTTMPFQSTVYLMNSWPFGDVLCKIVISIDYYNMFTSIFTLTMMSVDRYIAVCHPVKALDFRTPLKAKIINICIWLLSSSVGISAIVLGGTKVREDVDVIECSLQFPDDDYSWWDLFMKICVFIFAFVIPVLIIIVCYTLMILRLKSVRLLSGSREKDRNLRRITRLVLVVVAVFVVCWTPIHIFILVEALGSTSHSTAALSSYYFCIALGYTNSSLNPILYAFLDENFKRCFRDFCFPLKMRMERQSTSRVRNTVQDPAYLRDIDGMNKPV

Q: `CN1CC[C@@]2(C)c3cc(O)ccc3C[C@@H]1[C@@H]2NCCc1ccc(S(N)(=O)=O)cc1` [Compound 92, 4-(2-(((2R,6S,11R)-8-hydroxy-3,6-dimethyl-1,2,3,4,5,6-hexahydro-2,6-methanobenzo[d]azocin-11-yl)amino)ethyl)benzenesulfonamide] was tested. Which Ki [1] did it give?
A: > 20 µM

Q: And the EC50 (μ-opioid receptor [2])?
A: 149 ± 25.5 nM

Q: And the Emax (μ-opioid receptor [2])?
A: 97.3 ± 3.53%

Q: What about the Ki (μ-opioid receptor [3]) of the same compound?
A: 54.5 ± 17.3 nM

Q: What about the EC50 (μ-opioid receptor [4]) of the same compound?
A: 68.9 ± 16 nM

Q: And the Emax (μ-opioid receptor [4])?
A: 100 ± 3.12%

Q: And the EC50 (κ opioid receptor [5])?
A: > 20 µM

Q: What about the Emax (κ opioid receptor [5]) of the same compound?
A: 3.5 ± 1.71%

Q: What about the EC50 (κ opioid receptor [6]) of the same compound?
A: > 20 µM

Q: And the Emax (κ opioid receptor [6])?
A: 1%

Q: And the Ki (κ opioid receptor [7])?
A: 163 ± 3.83 nM

Q: Which results are given for `CN1CC[C@]2(C)c3cc(O)ccc3C[C@H]1[C@H]2NCCc1ccc(S(N)(=O)=O)cc1` [Compound 93, 4-(2-(((2S,6R,11S)-8-hydroxy-3,6-dimethyl-1,2,3,4,5,6-hexahydro-2,6-methanobenzo[d]azocin-11-yl)amino)ethyl)benzenesulfonamide]?
A: Ki [1]: > 20 µM; EC50 (μ-opioid receptor [2]): 4560 ± 743 nM; Emax (μ-opioid receptor [2]): 80.7 ± 4.48%; Ki (μ-opioid receptor [3]): 3700 ± 91.4 nM; EC50 (μ-opioid receptor [4]): 3140 ± 790 nM; Emax (μ-opioid receptor [4]): 92 ± 4.3%; EC50 (κ opioid receptor [6]): > 20 µM; Emax (κ opioid receptor [6]): 2%; Ki (κ opioid receptor [7]): 5350 ± 541 nM

Q: What does the source list for `CN1CC[C@@]2(C)c3cc(O)ccc3C[C@@H]1[C@H]2NCCc1ccc(S(N)(=O)=O)cc1` [Compound 94, 4-(2-(((2R,6S,11S)-8-hydroxy-3,6-dimethyl-1,2,3,4,5,6-hexahydro-2,6-methanobenzo[d]azocin-11-yl)amino)ethyl)benzenesulfonamide]?
A: Ki [1]: > 20 µM; EC50 (μ-opioid receptor [2]): 27.4 ± 4.2 nM; Emax (μ-opioid receptor [2]): 85.3 ± 5.93%; Ki (μ-opioid receptor [3]): 36.8 ± 12.1 nM; EC50 (μ-opioid receptor [4]): 40.8 ± 2.76 nM; Emax (μ-opioid receptor [4]): 85.3 ± 4.98%; EC50 (κ opioid receptor [5]): > 20 µM; Emax (κ opioid receptor [5]): 4.6 ± 0.4%; EC50 (κ opioid receptor [6]): > 20 µM; Emax (κ opioid receptor [6]): 0%; Ki (κ opioid receptor [7]): 16.8 ± 2.51 nM

Q: What does the source list for `CN1CC[C@]2(C)c3cc(O)ccc3C[C@H]1[C@@H]2NCCc1ccc(S(N)(=O)=O)cc1` [Compound 95, 4-(2-(((2S,6R,11R)-8-hydroxy-3,6-dimethyl-1,2,3,4,5,6-hexahydro-2,6-methanobenzo[d]azocin-11-yl)amino)ethyl)benzenesulfonamide]?
A: Ki [1]: > 20 µM; EC50 (μ-opioid receptor [2]): 1440 ± 44.7 nM; Emax (μ-opioid receptor [2]): 79.7 ± 8.41%; Ki (μ-opioid receptor [3]): 1760 ± 324 nM; EC50 (μ-opioid receptor [4]): 2120 ± 204 nM; Emax (μ-opioid receptor [4]): 78 ± 3.06%; EC50 (κ opioid receptor [6]): > 20 µM; Emax (κ opioid receptor [6]): -1%; Ki (κ opioid receptor [7]): 4600 ± 764 nM
